Assay results reported in patent publication US20180120298A1, “HEPATOCYTE CULTURE DEVICE CAPABLE OF ENHANCING ACCUMULATION AND EXCRETION OF HEPATIC METABOLITE IN AND INTO BILE CANALICULUS-LIKE STRUCTURE, AND METHOD FOR EVALUATING CANDIDATE COMPOUND SENSITIVE TO EXCRETION INTO BILE OR BLOOD AND HEPATIC METABOLITE OF SAID CANDIDATE COMPOUND USING SAID HEPATOCYTE …” (National Agriculture and Food Reserach Organization, priority 2015, published 2018).
Read-outs that look alike come from different tables or passages of the source. Values belong to the compound of their own block, whether it stands above or below them.

Experiments:
HepG2 cells [1] = test system: HepG2 cells
Protocol: (§1) HepG2 cells (purchased from RIKEN BioResource Center, RCB1648, Lot.004) suspended in 0.5 mL DMEM culture medium containing 10% FBS, 20 mM HEPES, 100 units/mL penicillin, and 100 μg/mL streptomycin were seeded at 5×10^4 cells/cm^2 and cultured for 2 days in a hydrogel membrane chamber (ad-MED Vitrigel (registered trademark) manufactured by KANTO KAGAKU) to which a detachable silicone-coated PET film is attached. Thereafter, the film on a bottom surface of the hydrogel membrane chamber was detached, the chamber was mounted in a well of a 12-well plate, and culture was carried out for 1 day in a state where the bottom surface is in contact with air (refer to FIG. 2). The 0.5 mL culture medium was exchanged daily after seeding.
(§2) [1] After removing the culture medium of the hydrogel membrane chamber containing the activated HepG2 cells, 0.5 mL of the culture medium containing 250 vg/mL Fluorescein diacetate (FD) was added, and then culture was carried out at 37° C. for 1 hour in a CO2 incubator (refer to FIG. 4 and Observation A of FIG. 5).
(§3) [2] After removing the culture medium containing the FD remaining in the chamber, washing was performed twice with 0.5 mL of Hank's Balanced Salt Solution (Hank's balanced salt solution: HBSS), 0.5 mL of the culture medium was added to the chamber, and then culture was carried out at 37° C. for 1 hour in a CO2 incubator (refer to Observation B of FIG. 5).
(§4) [1] HepG2 cells were seeded to prepare 12 sets of activated hydrogel membrane chambers. For 6 sets, FD was added to the culture medium and cultured by the same procedure as in [1] to [2] of Example 1.
(§5) [2] Subsequently, after removing the culture medium remaining in the chamber, 0.5 mL of the culture medium was newly added to the chamber. Subsequently, each of three sets was cultured at 37° C. for 1 hour in a CO2 incubator under the following four conditions (refer to FIG. 6).
(§6) i) A set in which HepG2 cells were co-cultured with TFK-1 cells (FD added) ii) A set in which HepG2 cells were co-cultured with TFK-1 cells (FD not added) iii) A set in which HepG2 cells were homo-cultured in a dish containing only a culture medium (FD added) iv) A set in which HepG2 cells were homo-cultured in a dish containing only a culture medium (FD not added)
(§7) [3] The culture medium in the chamber and the dish of i) to iv) was recovered and the fluorescence intensities were measured.
(§8) [2] With respect to the 36 sets of hydrogel membrane chambers in which the cells were seeded and cultured in [1], the culture medium remaining in the chamber was removed, and then 0.5 mL of the culture medium was newly added to the chamber. Subsequently, each of three sets was cultured at 37° C. in a CO2 incubator with culture time of 3 minutes, 30 minutes, and 60 minutes (for each 12 sets) under the following four conditions i) to iv) the same as those of Example 2.
[3] The culture media in the dishes and in the chambers of i) to iv) were recovered 3 minutes, 30 minutes, and 60 minutes after the start of culture, and the fluorescence intensities were measured. Measurements were made three times respectively, and average values are shown in Table 3 (culture time 3 minutes), Table 4 (culture time 30 minutes), and Table 5 (culture time 60 minutes). In FIG. 7, the term “Co-culture” means the set in which HepG2 cells were co-cultured with TFK-1 cells, and the term “Homo-culture” means the set in which HepG2 cells were homo-cultured in the dish containing the culture medium.
as §8, with “to the 48 sets of” for “to the 36 sets of”, “30 minutes, 60 minutes, and 180” for “30 minutes, and 60”, “minutes, and 180 minutes (for” for “minutes, and 60 minutes (for”

[2] = test system: HepG2 cells co-cultured with TFK-1 cells; experiment: Fluorescence microscope observation of Fluorescein in cytoplasm and bile canaliculus-like structure, co-culture with TFK-1 cells; assay type: in vitro ADME, human
Protocol: [3] […] After removing the culture medium in the dish, 0.5 mL of the culture medium for HepG2 cells was added thereto.
(§9) [1] First, HepG2 cells were seeded to prepare 2 sets of activated hydrogel membrane chambers.

[3] = test system: HepG2 cells co-cultured with Normal Human Dermal Fibroblasts (NHDFs); experiment: Fluorescein excretion into chamber and dish, activated HepG2 cells co-cultured with NHDFs; assay type: in vitro ADME; settings: Example 6; culture time 60 minutes
Protocol: [1] First, HepG2 cells were seeded to prepare 18 sets of activated hydrogel membrane chambers.

[4] = test system: HepG2 cells co-cultured with TFK-1 cells; experiment: Fluorescein excretion into chamber and dish, activated HepG2 cells in hydrogel membrane chamber co-cultured with TFK-1 cells; assay type: in vitro ADME, human
Protocol: as §1, §2, §3
[3] Subsequently, after removing the culture medium remaining in the chamber, 0.5 mL of the culture medium was newly added to the chamber. Furthermore, TFK-1 cells (purchased from RIKEN BioResource Center, RCB2537, Lot.002) suspended in 2.0 mL of RPMI 1640 culture medium containing 10% FBS, 100 units/mL penicillin, and 100 μg/mL streptomycin were seeded at 7×10^4 cells/cm^2 in a dish having a diameter of 35 mm and cultured for 3 days, and therefore, monolayered cells were prepared in advance. After removing the culture medium in the dish, 0.5 mL of the culture medium for HepG2 cells was added thereto. The chamber was mounted on the monolayer of TFK-1 cells in the dish having a diameter of 35 mm, and then co-culture was carried out at 37° C. for 1 hour in a CO2 incubator (refer to Observation C of FIG. 5).
[4] The fluorescence intensities of Fluorescein in the culture medium in the chamber and in the dish were measured. In Table 1, FD (−) is a value measured as a background value using a chamber having HepG2 cells cultured without adding FD.
as §4, §5, §6, §7
[2] […]

HepG2 cells [5] = experiment: Fluorescence microscope observation of Fluorescein in cytoplasm and bile canaliculus-like structure, homo-culture; assay type: in vitro ADME
Protocol: as §9

[6] = test system: HepG2 cells co-cultured with TFK-1 cells; experiment: Fluorescein excretion into chamber and dish, activated HepG2 cells in hydrogel membrane chamber co-cultured with TFK-1 cells; assay type: in vitro ADME, human; settings: Example 4

Average value of set, in chamber (HepG2 cells [1]; human, 3 min, 250 vg/mL): 507
FD(+)-FD(−) in chamber as percentage of total excreted into chamber and dish (HepG2 cells [1]; human, 30 min, 250 vg/mL): (50%)
FD(+)-FD(−) in dish as percentage of total excreted into chamber and dish (HepG2 cells [1]; human, 30 min, 250 vg/mL): (50%)
Average value of set, in chamber (HepG2 cells [1]; human, 1 h, 250 vg/mL): 1145
Average value of set, in dish (HepG2 cells [1]; human, 1 h, 250 vg/mL): 645
FD(+)-FD(−) in chamber as percentage of total excreted into chamber and dish (HepG2 cells [1]; human, 1 h, 250 vg/mL): (90%)
FD(+)-FD(−) in dish as percentage of total excreted into chamber and dish (HepG2 cells [1]; human, 1 h, 250 vg/mL): (10%)
FD(+)-FD(−), in chamber (HepG2 cells [1]; human, 1 h, 250 vg/mL): 549
FD(+)-FD(−), in dish (HepG2 cells [1]; human, 1 h, 250 vg/mL): 60
Average value of set, in chamber (HepG2 cells [1]; human, 180 min, 250 vg/mL): 579
Average value of set, in dish (HepG2 cells [1]; human, 180 min, 250 vg/mL): 515
FD(+)-FD(−) in chamber as percentage of total excreted into chamber and dish (HepG2 cells [1]; human, 180 min, 250 vg/mL): (71%)
FD(+)-FD(−) in dish as percentage of total excreted into chamber and dish (HepG2 cells [1]; human, 180 min, 250 vg/mL): (29%)
FD(+)-FD(−), in chamber (HepG2 cells [1]; human, 180 min, 250 vg/mL): 88
FD(+)-FD(−), in dish (HepG2 cells [1]; human, 180 min, 250 vg/mL): 36
SMILES: CC(=O)Oc1ccc2c(c1)Oc1cc(OC(C)=O)ccc1C21OC(=O)c2ccccc21 [FD, Fluorescein diacetate]

Fluorescein accumulated in the bile canaliculus-like structure after co-culturing with TFK-1 cells ([2]; Example 1, Observations B and C of FIG. 5, co-culture 1 hour): decreased
time within which reduction in the amount of Fluorescein accumulated in the bile canaliculus-like structure was confirmed ([2]; Example 5, co-culture with TFK-1 cells): ≤ 1 h
reduction in the green fluorescence of Fluorescein ([2]; Example 5, co-culture, after 1 hour of excretion): significantly noticeable
green fluorescence of Fluorescein ([2]; Example 5, co-culture, after 3 hours of excretion): not possible to confirm
green fluorescence of Fluorescein ([2]; Example 5, co-culture, after 23 hours of excretion): not possible to confirm
amount of Fluorescein excreted into the dish smaller in co-culture with NHDFs than in co-culture with TFK-1 cells [3]: 54%
total of the fluorescence intensities of Fluorescein excreted into chamber and dish, co-culture with NHDFs compared with homo-culture [3]: almost the same
amount of Fluorescein excreted into the dish larger in co-culture with TFK-1 cells than in homo-culture (rate of excretion to the lower side) ([4]; Example 2, 1 hour): 4%
increase of the total amount of excreted Fluorescein, co-culture with TFK-1 cells vs homo-culture ([4]; Example 2, 1 hour): about 26%
total of the fluorescence intensities of Fluorescein excreted into the chamber and into the dish ([4]; Example 2, co-cultured with TFK-1 cells, 1 hour): 770
rate of the fluorescence intensities of Fluorescein excreted into the dish (lower side) over time ([4]; Example 3, co-culture with TFK-1 cells): increased
total of the fluorescence intensities of excreted Fluorescein, co-culture with TFK-1 cells compared with homo-culture ([4]; Example 3, culture time 3, 30 and 60 minutes): larger
time needed to reduce the amount of Fluorescein accumulated in the bile canaliculus-like structure (HepG2 cells [5]; Example 5): ≥ 1 days
reduction in the green fluorescence of Fluorescein (HepG2 cells [5]; Example 5, after 1 hour of excretion): not noticeable
reduction in the green fluorescence of Fluorescein (HepG2 cells [5]; Example 5, after 3 hours of excretion): significantly noticeable
total of the fluorescence intensities of excreted Fluorescein, co-culture with TFK-1 cells compared with homo-culture ([6]; at any time of the culture time (3 to 180 minutes)): larger
culture time beyond which total excreted Fluorescein fluorescence becomes almost a plateau state ([6]; co-culture with TFK-1 cells): exceeds 60 minutes
rate of the fluorescence intensities of Fluorescein excreted into the dish (lower side) over time ([6]; co-culture with TFK-1 cells): increased
amount of Fluorescein excreted into the dish (lower side) larger in co-culture with TFK-1 cells than in homo-culture (rate of excretion to the lower side) ([6]; culture time 180 minutes): 36%
rate of the fluorescence intensities of Fluorescein excreted into the dish (lower side) over time (HepG2 cells [1]): decreased over time
culture time beyond which total excreted Fluorescein fluorescence becomes almost a plateau state (HepG2 cells [1]; human, 250 vg/mL): exceeds 30 minutes
total of the fluorescence intensities of Fluorescein excreted into the chamber and into the dish (HepG2 cells [1]; human, 1 h, 250 vg/mL): 609
SMILES: O=C1OC2(c3ccc(O)cc3Oc3cc(O)ccc32)c2ccccc21 [Fluorescein]
green fluorescence of Fluorescein (HepG2 cells [5]; Example 5, after 23 hours of excretion): fluorescence in the bile canaliculus-like structure remained
